Patent publication US20120083522A1, “MODULATION OF INFLAMMATORY RESPONSES BY FACTOR XI” (Isis Pharmaceuitcals, inc., priority 2009, published 2012)

How the values were obtained:
[1] = Tolerability in Sprague-Dawley rats: kidney function (Example 19); format: in vivo; details: Sprague Dawley rats; for urine protein/creatinine ratio, After: after 50 mg/kg s.c. twice per week for 6 weeks; for urine protein/creatinine ratio, Before: before antisense oligonucleotide treatment
Description: Urine samples were taken before the start of treatment.

human Factor XI mRNA [2] = test: Antisense inhibition in HepG2 cells by microwalk gapmers, 8,000 nM, electroporation (Example 14); format: cell-based; details: HepG2 cells, 8,000 nM
How it was run: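 HepG2 cells electroporated with 8,000 nM 2′-MOE phosphorothioate gapmer (5-10-5, 5-8-5 or 6-8-6). Factor XI mRNA measured after ~24 h by qRT-PCR, normalised to RIBOGREEN total RNA. Reported as percent inhibition versus untreated cells.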

human Factor XI mRNA [3] = test: Dose-dependent inhibition in HepG2 cells, electroporation (Example 5); format: cell-based; details: approx. 16 h, relative to untreated control cells
Method: The gapmers were also transfected via electroporation and their dose dependent inhibition of human Factor XI mRNA was measured. Cells were plated at a density of 20,000 cells per well and transfected via electroporation with 625 nM, 1250 nM, 2500 nM, 5,000 nM, 10,000 nM, and 20,000 nM concentrations of antisense oligonucleotide, as specified in Table 12. After a treatment period of approximately 16 hours, RNA was isolated from the cells and human Factor XI mRNA levels were measured by quantitative real-time PCR. Human Factor XI primer probe set RTS 2966 was used to measure mRNA levels. Factor XI mRNA levels were adjusted according to total RNA content, as measured by RIBOGREEN®. Results are presented as percent inhibition of human Factor XI, relative to untreated control cells.

human Factor XI mRNA [4] = test: Dose-dependent inhibition in HepG2 cells, lipofectin (Example 5); format: cell-based; details: 16 hours
Method: Cells were plated at a density of 10,000 cells per well and transfected using lipofectin reagent with 2.34 nM, 4.69 nM, 9.375 nM, 18.75 nM, 37.5 nM, and 75 nM concentrations of antisense oligonucleotide, as specified in Table 11. After a treatment period of approximately 16 hours, RNA was isolated from the cells and human Factor XI mRNA levels were measured by quantitative real-time PCR. Human Factor XI primer probe set RTS 2966 was used to measure mRNA levels. Factor XI mRNA levels were adjusted according to total RNA content, as measured by RIBOGREEN®. Results are presented as percent inhibition of human Factor XI, relative to untreated control cells.

human Factor XI mRNA [5] = test: Dose-dependent inhibition in HepG2 cells, electroporation (Example 4); format: cell-based; details: 16 hours
How it was run: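 HepG2 cells electroporated with 0.7, 2.2, 6.7 or 20 μM antisense gapmer and harvested after ~16 h. Factor XI mRNA quantified by qRT-PCR (primer probe set RTS 2966), normalised to total RNA (RIBOGREEN). Reported as percent inhibition versus untreated control cells.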

human Factor XI mRNA [6] = test: Dose-dependent inhibition in HepG2 cells, lipofectin (Example 4); format: cell-based; details: 16 hours
How it was run: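 HepG2 cells at 10,000 per well were lipofectin-transfected with 9.375, 18.75, 37.5 or 75 nM antisense oligonucleotide for about 16 h. Factor XI mRNA was quantified by real-time PCR (primer probe set RTS 2966) and normalised to RIBOGREEN total RNA. Values are percent inhibition versus untreated cells.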

Substance | urine protein/creatinine ratio, After [1] | urine protein/creatinine ratio, Before [1] | percent inhibition of human Factor XI mRNA (human Factor XI mRNA [3]; 625 nM) | percent inhibition of human Factor XI mRNA (human Factor XI mRNA [3]; 1250 nM) | percent inhibition of human Factor XI mRNA (human Factor XI mRNA [3]; 2500 nM) | percent inhibition of human Factor XI mRNA (human Factor XI mRNA [3]; 5000 nM) | percent inhibition of human Factor XI mRNA (human Factor XI mRNA [3]; 10000 nM) | percent inhibition of human Factor XI mRNA (human Factor XI mRNA [3]; 20000 nM) | percent inhibition of human Factor XI mRNA, relative to untreated control cells (human Factor XI mRNA [4]; 2.34 nM) | percent inhibition of human Factor XI mRNA, relative to untreated control cells (human Factor XI mRNA [4]; 4.69 nM) | percent inhibition of human Factor XI mRNA, relative to untreated control cells (human Factor XI mRNA [4]; 9.375 nM) | percent inhibition of human Factor XI mRNA, relative to untreated control cells (human Factor XI mRNA [4]; 18.75 nM) | percent inhibition of human Factor XI mRNA, relative to untreated control cells (human Factor XI mRNA [4]; 37.5 nM) | percent inhibition of human Factor XI mRNA, relative to untreated control cells (human Factor XI mRNA [4]; 75 nM) | percent inhibition of Factor XI mRNA, relative to untreated control cells (human Factor XI mRNA [5]; 0.7 μM) | percent inhibition of Factor XI mRNA, relative to untreated control cells (human Factor XI mRNA [5]; 2.2 μM) | percent inhibition of Factor XI mRNA, relative to untreated control cells (human Factor XI mRNA [5]; 6.7 μM) | percent inhibition of Factor XI mRNA, relative to untreated control cells (human Factor XI mRNA [5]; 20 μM) | percent inhibition of Factor XI mRNA, relative to untreated control cells (human Factor XI mRNA [6]; 9.375 nM) | percent inhibition of Factor XI mRNA, relative to untreated control cells (human Factor XI mRNA [6]; 18.75 nM) | also measured
416864 (antisense GGCAGCGGACGGCATTGGTG; 5-10-5 gapmer, wing sugar chemistry not given here, further chemistry not given here) [compound 416864] | 4.0 | 1.2 | 45% | 74% | 84% | 87% | 92% | 94% | 13% | 34% | 42% | 65% | 68% | 80% | 32% | 65% | 78% | 90% | 18% | 43% | Percent inhibition of human Factor XI mRNA levels (human Factor XI mRNA [2]): 88%; percent inhibition of Factor XI mRNA, relative to untreated control cells (human Factor XI mRNA [6]; 37.5 nM): 62%; percent inhibition of Factor XI mRNA, relative to untreated control cells (human Factor XI mRNA [6]; 75 nM): 78%
416838 (antisense GCAACCGGGATGATGAGTGC; 5-10-5 gapmer, wing sugar chemistry not given here, further chemistry not given here) [compound 416838] | 3.7 | 1.2 | 66% | 79% | 87% | 90% | 93% | 96% | 21% | 37% | 50% | 63% | 74% | 83% | 5% | 30% | 55% | 83% | 31% | 51% | percent inhibition of Factor XI mRNA, relative to untreated control cells (human Factor XI mRNA [6]; 37.5 nM): 64%; percent inhibition of Factor XI mRNA, relative to untreated control cells (human Factor XI mRNA [6]; 75 nM): 86%
